According to EPA's ToxValDB 9.5 (doi:10.2903/j.efsa.2016.4609):
≈ marks a conversion by molar mass, not a printed value.

Tests used:
Oryctolagus sp. = conditions: developmental; development
Rattus norvegicus = conditions: for NOAEL: gavage
Apis mellifera = conditions: acute, duration: 48 hours, mortality
Pimephales promelas = conditions: chronic/long-term; duration: 56 days; mortality
Tagia sp. = conditions: chronic/long-term; mortality
Neomysis kadiakensis = conditions: chronic/long-term; duration: 28 days; reproduction
Ictalurus punctatus = conditions: acute; duration: 96 hours; mortality
[1] = chronic, duration: 2 years, histopathology: neoplastic

Compound	LOAEL (Oryctolagus sp.) [mg/kg-day]	LOAEL (Rattus norvegicus; [1]) [mg/kg-day]	LD50 (Apis mellifera; dermal) [µg/piece]	LD50 (Apis mellifera; oral, unspecified) [µg/piece]	NOEC (Pimephales promelas) [mg/L]	NOEC (Tagia sp.) [mg/kg]	NOEC (Neomysis kadiakensis) [mg/L]	LD50 (Rattus norvegicus; acute, oral, mortality) [mg/kg-day]	LOAEL (Rattus norvegicus; reproduction developmental, reproduction) [mg/kg-day]	LD50 (Colinus virginianus; acute, oral, mortality) [mg/kg-day]	NOEL (Colinus virginianus; reproduction developmental) [mg/kg-day]	LC50 (Ictalurus punctatus) [mg/L]	NOAEL (Rattus norvegicus; short-term, duration: 28 days, oral, Wistar) [mg/kg-day]	NOAEL (Rattus norvegicus; subchronic, duration: 90 days, oral, hematological) [mg/kg-day]
NC(=O)NC(=O)Nc1cc(Cl)c(O)c(Cl)c1 [N-(3,5-Dichloro-4-hydroxyphenyl)-2-imidodicarbonic diamide]	20	6.1	–	–	–	–	–	–	–	–	–	–	–	–
CC(C)NC(=O)N1CC(=O)N(c2cc(Cl)cc(Cl)c2)C1=O	20	6.1	> 100	> 100	0.0731	1000	0.0075	> 2000	26.9	3780	22.3	3.1 (≈ 9.39 µM)	–	–
NC(CCC(=O)Nc1cc(Cl)cc(Cl)c1)C(=O)O (stereo unspecified) [N-(3,5-Dichlorophenyl)glutamine]	–	–	–	–	–	–	–	–	–	–	–	–	7.5	1
